Experimental data published in patent publication US10106601B2, “Inhibition of PLGF to treat philadelphia chromosome positive leukemia” (VIB VZW, priority 2008, dated 2018).
“Also recorded” adds a separate entry of the source.

B1: PIGF: murine recombinant placental growth factor from R&D Systems, used at 50 ng/ml (protein, UniProt P49764 19-158, looked up)
Placenta growth factor: VHSQGALSAGNNSTEVEVVPFNEVWGRSYCRPMEKLVYILDEYPDEVSHIFSPSCVLLSRCSGCCGDEGLHCVPIKTANITMQILKIPPNRDPHFYVEMTFSQDVLCECRPILETTKAERRKTKGKRKRSRNSQTEEPHP

Experiments:
murine BMDSCs = assay: PIGF secretion by stromal cells incubated with imatinib; format: cell-based; settings: increasing concentrations of imatinib
Experimental: For isolation of BMDSCs, the bone marrow from femurs and tibias was flushed, the erythrocytes eliminated with lysis buffer (150 mM NH4Cl, 0.1 mM EDTA, 10 mM KHCO3, pH 7.4) and subsequently the cells were cultured in DMEM medium supplemented with 15% FCS. After 24 hours, the non-adherent cell fraction was removed, and the adherent cells were further cultured and expanded for 3 weeks.
Concentrations of PIGF or VEGF were quantified in cell culture supernatants, peripheral blood plasma and bone marrow plasma using “Quantikine” mouse PIGF and mouse VEGF immunoassays (R&D Systems). Concentrations were expressed as pg/ml/10^5 cells or as pg/ml.

PIGF = PIGF levels in PB of CML patients treated with Imatinib; format: in vivo, human
BCR/ABL+ cell lines = assay: Induction of proliferation of leukemia cells by recombinant PIGF; format: cell-based, human and murine; settings: in vitro
Experimental: Proliferation of leukemia cells and BMDSCs was analyzed by using MTT assays or by manual counting with a hemocytometer. Murine recombinant PIGF and anti-VEGFR-1 were obtained from R&D Systems. Anti-PIGF and control IgG1 were produced by Thrombogenics and Biolnvent and characterized as described (Fischer et al., 2007). PIGF was used at a concentration of 50 ng/ml and the antibodies in 100-fold molar excess, unless stated otherwise. For co-culture experiments, 10^5 BMDSCs were co-cultured for 48 hours with 4×10^5 leukemia cells alone or in presence of the respective antibodies in serum-free medium. Subsequently, numbers of adherent BMDSCs and non-adherent leukemia cells were determined and supernatants were harvested for analyses of PIGF and VEGF protein.

Bv-173 and KCL-22 cells = assay: Western Blots of ABL phosphorylation with and without PIGF; format: cell-based, human; settings: cells incubated with and without PIGF; data not shown
Experimental: In order to elucidate, whether PIGF induces changes in ABL phosphorylation of BCR/ABL^+ leukemia cells, we performed Western Blots of Bv-173 and KCL-22 cells that were incubated with and without PIGF.

| Molecule | PIGF secretion by BMDSCs (murine BMDSCs) | PIGF levels in PB (PIGF; patients with BCR/ABL/ABL ratio <1) | PIGF levels in PB (PIGF; patients with complete molecular remission (CMR) vs healthy subjects) | induction of proliferation of leukemia cells by PIGF (BCR/ABL+ cell lines) | phosphorylation of ABL (Bv-173 and KCL-22 cells) |
| --- | --- | --- | --- | --- | --- |
| Cc1ccc(NC(=O)c2ccc(CN3CCN(C)CC3)cc2)cc1Nc1nccc(-c2cccnc2)n1 [imatinib] | dose-dependent induction of PIGF | elevated to similar levels as in untreated, newly diagnosed CML patients | significantly higher | – | – |
| B1 | – | – | – | dose dependently induced proliferation; also recorded: dose-dependent induction of proliferation | did not modify phosphorylation of ABL |
